Patent publication US20190062305A1, “PYRIDYL OR PYRAZINYL COMPOUNDS CARRYING A METHYL-BOUND ALPHA-AMINO ACID AMIDE GROUP” (ABBVIE DEUTSCHLAND GMBH & CO. KG, priority 2015, published 2019)
Structures can show the parent of a compound that is named as a salt. Where two headings read alike, the source gives them in different places. Values belong to the molecule of their own block, whether it stands above or below them.

Experiments:
5-HT2C receptor = biological target: T1, 5-HT2C receptor (Homo sapiens, UniProt P28335); experiment: Human 5-HT2C functional assay (beta-arrestin2 recruitment, U2OS_HTR2C_β-Arrestin cells); type: cell-based; conditions: for EC50: beta-arrestin2 recruitment, U2OS_HTR2C_β-Arrestin cells, 1.5 h incubation, read-out: EC50 5-HT2C (potency in functional assay); for Emax: relative efficacy vs response to 10 μM 5-HT or maximal 5-HT effect (100%)
T1 construct: host or cells: U2OS
Summary of the method: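 EC50 and relative efficacy came from 4-parameter variable-slope fits, normalised to 10 µM 5-HT or maximal 5-HT response (100%). Luminescent β-galactosidase enzyme-complementation signal was read after 1.5 h compound exposure in U2OS_HTR2C_β-Arrestin cells held in 1% serum medium from the prior day.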

[1] = Metabolic stability in human liver microsomes, unbound intrinsic clearance (Cl int/fu mic); type: in vitro ADME; conditions: pH 7.4, human liver microsomes 0.25 mg/mL, 0.5 μM compound, NADPH, read-out: Cl int, mic unb. (h) [l/h/kg] (unbound intrinsic clearance, human)
Summary of the method: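 Unbound intrinsic clearance is CLint divided by fu mic, with the unbound fraction measured by 4 h HTDialysis at 37 °C of 0.25 mg/ml microsomes spiked with 0.5 µM compound. For CLint, 0.5 µM compound was incubated with 0.25 mg/mL human microsomes and 1.0 mM NADPH (pH 7.4, 37 °C). Substrate loss over 30 min was measured by LC-MS/MS and t1/2 assumed first-order kinetics.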

T1 sequence (P28335 33-458): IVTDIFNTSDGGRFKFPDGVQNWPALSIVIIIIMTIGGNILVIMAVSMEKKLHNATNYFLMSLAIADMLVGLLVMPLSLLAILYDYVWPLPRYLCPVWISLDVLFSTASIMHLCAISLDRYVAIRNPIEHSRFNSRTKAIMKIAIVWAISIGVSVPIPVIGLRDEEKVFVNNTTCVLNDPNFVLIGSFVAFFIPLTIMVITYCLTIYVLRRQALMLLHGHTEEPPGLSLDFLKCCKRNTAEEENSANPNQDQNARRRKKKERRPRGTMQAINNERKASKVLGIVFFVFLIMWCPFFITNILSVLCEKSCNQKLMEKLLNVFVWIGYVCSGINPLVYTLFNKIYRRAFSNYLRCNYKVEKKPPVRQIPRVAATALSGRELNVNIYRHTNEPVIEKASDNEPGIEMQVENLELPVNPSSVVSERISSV
T1 sequence (P32121 whole entry partner): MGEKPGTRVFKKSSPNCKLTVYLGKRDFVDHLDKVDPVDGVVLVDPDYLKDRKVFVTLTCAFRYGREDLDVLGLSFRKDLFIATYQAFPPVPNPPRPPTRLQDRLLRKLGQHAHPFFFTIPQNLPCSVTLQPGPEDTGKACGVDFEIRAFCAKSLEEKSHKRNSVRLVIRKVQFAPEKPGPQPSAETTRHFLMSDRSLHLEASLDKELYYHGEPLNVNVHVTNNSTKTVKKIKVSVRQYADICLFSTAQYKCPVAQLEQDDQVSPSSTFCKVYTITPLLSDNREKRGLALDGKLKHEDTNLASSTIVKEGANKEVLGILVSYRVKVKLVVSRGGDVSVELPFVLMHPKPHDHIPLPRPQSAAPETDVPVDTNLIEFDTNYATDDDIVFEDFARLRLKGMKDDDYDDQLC

Structure (SMILES): COc1nc(OCC2CC(F)(F)C2)c(F)cc1CN(C)C(=O)[C@@H]1CCCN1C [Example 106, (2S)—N-[[6-[(3,3-Difluorocyclobutyl)methoxy]-5-fluoro-2-methoxy-3-pyridyl]-methyl]-N,1-dimethyl-pyrrolidine-2-carboxamide Hydrochloride]
EC50 (5-HT2C receptor): 20 to 200 nM
Emax (5-HT2C receptor): 30 to 50%
CLint scaled at 0.5 μM ([1]; human, liver microsomes): < 5 L/h/kg

Structure (SMILES): COc1nc(OC2CC(F)(F)C2)cnc1CNC(=O)[C@@H]1CCCN1 [Example 107, (2S)—N-[[5-(3,3-Difluorocyclobutoxy)-3-methoxy-pyrazin-2-yl]methyl]pyrrolidine-2-carboxamide; 2,2,2-trifluoroacetic Acid]
EC50 (5-HT2C receptor): 200 to 1000 nM
Emax (5-HT2C receptor): > 70%
CLint scaled at 0.5 μM ([1]; human, liver microsomes): < 5 L/h/kg

Structure (SMILES): COc1nc(OC2CCC(F)(F)CC2)cnc1CNC(=O)[C@@H]1CCCN1 [Example 108, (2S)—N-[[5-(4,4-Difluorocyclohexoxy)-3-methoxy-pyrazin-2-yl]methyl]pyrrolidine-2-carboxamide; 2,2,2-trifluoroacetic Acid]
EC50 (5-HT2C receptor): 20 to 200 nM
Emax (5-HT2C receptor): > 70%
CLint scaled at 0.5 μM ([1]; human, liver microsomes): < 5 L/h/kg

EC50 (5-HT2C receptor): < 20 nM
Emax (5-HT2C receptor): > 70%
CLint scaled at 0.5 μM ([1]; human, liver microsomes): 50 to 500 L/h/kg
Structure (SMILES): COc1nc(OCC(C)(C(F)(F)F)C(F)(F)F)c(F)cc1CNC(=O)[C@@H]1CCCN1 [Example 109, (2S)—N-[[5-Fluoro-2-methoxy-6-[3,3,3-trifluoro-2-methyl-2-(trifluoromethyl)propoxy]-3-pyridyl]methyl]pyrrolidine-2-carboxamide Hydrochloride]

Structure (SMILES): COc1nc(OCC(F)(F)C(F)(F)C(F)(F)F)c(F)cc1CNC(=O)[C@@H]1CCCN1 [Example 110, (2S)—N-[[5-Fluoro-6-(2,2,3,3,4,4,4-heptafluorobutoxy)-2-methoxy-3-pyridyl]-methyl]pyrrolidine-2-carboxamide Hydrochloride]
EC50 (5-HT2C receptor): < 20 nM
Emax (5-HT2C receptor): > 70%
CLint scaled at 0.5 μM [1]: 5 to 50 L/h/kg

Structure (SMILES): COc1nc(OC(C(F)(F)F)C(F)(F)F)c(F)cc1CNC(=O)[C@@H]1CCCN1 [Example 111, (2S)—N-[[5-Fluoro-2-methoxy-6-[2,2,2-trifluoro-1-(trifluoromethyl)ethoxy]-3-pyridyl]methyl]pyrrolidine-2-carboxamide Hydrochloride]
EC50 (5-HT2C receptor): < 20 nM
Emax (5-HT2C receptor): > 70%
CLint scaled at 0.5 μM ([1]; human, liver microsomes): 5 to 50 L/h/kg

Structure (SMILES): COc1nc(OC2CC(F)(F)C2(F)F)c(F)cc1CNC(=O)[C@@H]1CCCN1 (stereo partly drawn) [Example 112, (2S)—N-[[5-Fluoro-2-methoxy-6-(2,2,3,3-tetrafluorocyclobutoxy)-3-pyridyl]methyl]pyrrolidine-2-carboxamide; 2,2,2-trifluoroacetic Acid]
EC50 (5-HT2C receptor): < 20 nM
Emax (5-HT2C receptor): > 70%
CLint scaled at 0.5 μM ([1]; human, liver microsomes): < 5 L/h/kg

Structure (SMILES): COc1nc(OCC(F)(F)F)c(F)cc1CN(C)C(=O)[C@@H]1CCCN1C [Example 113, (2S)—N-[[5-Fluoro-2-methoxy-6-(2,2,2-trifluoroethoxy)-3-pyridyl]methyl]-N,1-dimethyl-pyrrolidine-2-carboxamide Hydrochloride]
EC50 (5-HT2C receptor): 200 to 1000 nM
Emax (5-HT2C receptor): 30 to 50%
CLint scaled at 0.5 μM ([1]; human, liver microsomes): < 5 L/h/kg

Structure (SMILES): COc1nc(OC2CCC(F)(F)CC2)c(F)cc1CN(C)C(=O)[C@@H]1CCCN1 [Example 114, (2S)—N-[[6-(4,4-Difluorocyclohexoxy)-5-fluoro-2-methoxy-3-pyridyl]methyl]-N-methyl-pyrrolidine-2-carboxamide Hydrochloride]
EC50 (5-HT2C receptor): < 20 nM
Emax (5-HT2C receptor): > 70%
CLint scaled at 0.5 μM ([1]; human, liver microsomes): 5 to 50 L/h/kg

Structure (SMILES): COc1nc(OCC2CC(F)(F)C2)c(F)cc1CN(C)C(=O)[C@@H]1CCCN1 [Example 115, (2S)—N-[[6-[(3,3-Difluorocyclobutyl)methoxy]-5-fluoro-2-methoxy-3-pyridyl]-methyl]-N-methyl-pyrrolidine-2-carboxamide Hydrochloride]
EC50 (5-HT2C receptor): < 20 nM
Emax (5-HT2C receptor): 50 to 70%
CLint scaled at 0.5 μM ([1]; human, liver microsomes): < 5 L/h/kg

Structure (SMILES): COc1nc(O[C@H]2CC[C@H](C(F)(F)F)CC2)c(F)cc1CN(C)C(=O)[C@@H]1CCCN1 [Example 116, (2S)—N-[[5-Fluoro-2-methoxy-6-[trans-4-(trifluoromethyl)cyclohexoxy]-3-pyridyl]methyl]-N-methyl-pyrrolidine-2-carboxamide Hydrochloride]
EC50 (5-HT2C receptor): 20 to 200 nM
Emax (5-HT2C receptor): 50 to 70%
CLint scaled at 0.5 μM ([1]; human, liver microsomes): 5 to 50 L/h/kg

Structure (SMILES): COc1nc(OCC(F)(F)C(F)(F)C(F)(F)F)c(F)cc1CN(C)C(=O)[C@@H]1CCCN1 [Example 117, (2S)—N-[[5-Fluoro-6-(2,2,3,3,4,4,4-heptafluorobutoxy)-2-methoxy-3-pyridyl]-methyl]-N-methyl-pyrrolidine-2-carboxamide Hydrochloride]
EC50 (5-HT2C receptor): < 20 nM
Emax (5-HT2C receptor): 50 to 70%
CLint scaled at 0.5 μM [1]: 5 to 50 L/h/kg

Structure (SMILES): COc1nc(OC2CCC3(CC2)CC3(F)F)c(F)cc1CNC(=O)[C@@H]1CCCN1 (stereo partly drawn) [Example 118, (2S)—N-[[6-(2,2-Difluorospiro[2.5]octan-6-yl)oxy-5-fluoro-2-methoxy-3-pyridyl]methyl]pyrrolidine-2-carboxamide; 2,2,2-trifluoroacetic Acid]
EC50 (5-HT2C receptor): < 20 nM
Emax (5-HT2C receptor): > 70%
CLint scaled at 0.5 μM ([1]; human, liver microsomes): 5 to 50 L/h/kg

Structure (SMILES): COc1nc(O[C@H]2CC[C@@H](C(F)(F)F)CC2)c(F)cc1CN(C)C(=O)[C@@H]1CCCN1 [Example 119, (2S)—N-[[5-Fluoro-2-methoxy-6-[cis-4-(trifluoromethyl)cyclohexoxy]-3-pyridyl]-methyl]-N-methyl-pyrrolidine-2-carboxamide hydrochloride]
EC50 (5-HT2C receptor): 20 to 200 nM
Emax (5-HT2C receptor): > 70%
CLint scaled at 0.5 μM ([1]; human, liver microsomes): 5 to 50 L/h/kg

Structure (SMILES): COc1nc(-c2ccccc2)c(F)cc1CNC(=O)[C@@H]1CCCN1 [Example 125, (2S)—N-[(5-Fluoro-2-methoxy-6-phenyl-3-pyridyl)methyl]pyrrolidine-2-carboxamide; 2,2,2-trifluoroacetic Acid]
EC50 (5-HT2C receptor): 200 to 1000 nM
Emax (5-HT2C receptor): > 70%
CLint scaled at 0.5 μM ([1]; human, liver microsomes): 5 to 50 L/h/kg

Structure (SMILES): COc1nc(NC2CCC(F)(F)CC2)c(F)cc1CNC(=O)[C@@H]1CCCN1 [Example 126, (2S)—N-[[6-[(4,4-Difluorocyclohexyl)amino]-5-fluoro-2-methoxy-3-pyridyl]methyl]pyrrolidine-2-carboxamide; 2,2,2-trifluoroacetic Acid]
EC50 (5-HT2C receptor): < 20 nM
Emax (5-HT2C receptor): > 70%
CLint scaled at 0.5 μM ([1]; human, liver microsomes): < 5 L/h/kg

Structure (SMILES): COc1nc(C2CC2)c(F)cc1CNC(=O)[C@@H]1CCCN1 [Example 127, (2S)—N-[(6-Cyclopropyl-5-fluoro-2-methoxy-3-pyridyl)methyl]pyrrolidine-2-carboxamide; 2,2,2-trifluoroacetic Acid]
EC50 (5-HT2C receptor): 200 to 1000 nM
Emax (5-HT2C receptor): > 70%
CLint scaled at 0.5 μM ([1]; human, liver microsomes): 5 to 50 L/h/kg

EC50 (5-HT2C receptor): 20 to 200 nM
Emax (5-HT2C receptor): > 70%
CLint scaled at 0.5 μM ([1]; human, liver microsomes): < 5 L/h/kg
Structure (SMILES): COc1nc(N2CCCCC2)c(F)cc1CNC(=O)[C@@H]1CCCN1 [Example 128, (2S)—N-[[5-Fluoro-2-methoxy-6-(1-piperidyl)-3-pyridyl]methyl]pyrrolidine-2-carboxamide]

EC50 (5-HT2C receptor): < 20 nM
Emax (5-HT2C receptor): > 70%
CLint scaled at 0.5 μM ([1]; human, liver microsomes): 5 to 50 L/h/kg
Structure (SMILES): COc1nc(NC2CCC(C(F)(F)F)CC2)c(F)cc1CNC(=O)[C@@H]1CCCN1 (stereo partly drawn) [Example 130, (2S)—N-[[5-Fluoro-2-methoxy-6-[[4-(trifluoromethyl)cyclohexyl]amino]-3-pyridyl]methyl]pyrrolidine-2-carboxamide]

EC50 (5-HT2C receptor): < 20 nM
Emax (5-HT2C receptor): > 70%
CLint scaled at 0.5 μM ([1]; human, liver microsomes): 5 to 50 L/h/kg
Structure (SMILES): COc1nc(NC2CCCCC2)c(F)cc1CNC(=O)[C@@H]1CCCN1 [Example 131, (2S)—N-[[6-(Cyclohexylamino)-5-fluoro-2-methoxy-3-pyridyl]methyl]pyrrolidine-2-carboxamide]

Structure (SMILES): COc1nc(C2CCCCC2)c(F)cc1CNC(=O)[C@@H]1CCCN1 [Example 132, (2S)—N-[(6-Cyclohexyl-5-fluoro-2-methoxy-3-pyridyl)methyl]pyrrolidine-2-carboxamide; 2,2,2-trifluoroacetic Acid]
EC50 (5-HT2C receptor): < 20 nM
Emax (5-HT2C receptor): > 70%
CLint scaled at 0.5 μM ([1]; human, liver microsomes): 50 to 500 L/h/kg

Structure (SMILES): COc1nc(N2CCC(C(F)(F)F)CC2)c(F)cc1CNC(=O)[C@@H]1CCCN1 [Example 133, (2S)—N-[[5-Fluoro-2-methoxy-6-[4-(trifluoromethyl)-1-piperidyl]-3-pyridyl]methyl]pyrrolidine-2-carboxamide; 2,2,2-trifluoroacetic Acid]
EC50 (5-HT2C receptor): < 20 nM
Emax (5-HT2C receptor): > 70%
CLint scaled at 0.5 μM ([1]; human, liver microsomes): 5 to 50 L/h/kg

Structure (SMILES): COc1nc(N2CCC(F)(F)CC2)c(F)cc1CNC(=O)[C@@H]1CCCN1 [Example 134, (2S)—N-[[6-(4,4-Difluoro-1-piperidyl)-5-fluoro-2-methoxy-3-pyridyl]methyl]-pyrrolidine-2-carboxamide; 2,2,2-trifluoroacetic Acid]
EC50 (5-HT2C receptor): < 20 nM
Emax (5-HT2C receptor): > 70%
CLint scaled at 0.5 μM ([1]; human, liver microsomes): < 5 L/h/kg

Structure (SMILES): COc1nc(NCC2CC(F)(F)C2)c(F)cc1CNC(=O)[C@@H]1CCCN1 [Example 136, (2S)—N-[[6-[(3,3-Difluorocyclobutyl)methylamino]-5-fluoro-2-methoxy-3-pyridyl]methyl]pyrrolidine-2-carboxamide; 2,2,2-trifluoroacetic Acid]
EC50 (5-HT2C receptor): < 20 nM
Emax (5-HT2C receptor): > 70%
CLint scaled at 0.5 μM ([1]; human, liver microsomes): < 5 L/h/kg

Structure (SMILES): COc1nc(N(C)CCc2ccccc2)c(F)cc1CNC(=O)[C@@H]1CCCN1 [Example 137, (2S)—N-[[5-Fluoro-2-methoxy-6-[methyl(phenethyl)amino]-3-pyridyl]methyl]-pyrrolidine-2-carboxamide Hydrochloride]
EC50 (5-HT2C receptor): 200 to 1000 nM
Emax (5-HT2C receptor): > 70%
CLint scaled at 0.5 μM ([1]; human, liver microsomes): 50 to 500 L/h/kg
